Laboratory results published in publication PMC12040169 (PLOS Biology, 2025).

Experiment: in vitro
Details: human, hela cells, % viability

SMILES | viability at 28.5 h, 10 µM [%] | viability at 28.5 h, 10 µM (bulk resorufin, single well) [%]
O=C(Nc1nc(-c2ccco2)c(-c2ccncc2)s1)C1CC1 [CBK284494] | 87.4 | 
CN1CCN(CCC(=O)N2c3ccccc3Sc3ccc(C(F)(F)F)cc32)CC1 [CBK278221C] | 103 | 
COc1ccc(-c2onc(C)c2-c2cnn(-c3ccccc3)c2)c(O)c1 [CBK296095] | 116 | 
CCCc1n[nH]c(-c2ccc(Cl)cc2Cl)c1C(=O)OCC [CBK113548] | 107 | 
CC(=O)NC(CCCN=C(N)N)C(=O)O (centres unmarked) [CBK218726] | 107 | 
O=C(O)C1CSC(c2cc3ccccc3o2)N1 (centres unmarked) [CBK019502] | 93.7 | 
COc1cc(C(O)c2cc3c(cc2CO)OCO3)cc(OC)c1OC (centres unmarked) [CBK200098] | 100 | 
Cc1ccc(C(=O)Cn2c3ccccc3n3ncnc23)cc1 [CBK263081] | 99.6 | 
O=C(c1ccncc1)N1CCCn2nc(-c3cccnc3)cc2C1 [CBK288607] | 88.7 | 
COCCCNC(=O)c1cnn2c(C)c(Cc3cccc(F)c3)c(C)nc12 [CBK162126] | 116 | 
CC(C)(CO)CNc1nc(-c2ccc(F)cc2)cnc1N [CBK063589] | 95.7 | 
CCN(CC1CCOC1)C(=O)c1cn2ccccc2n1 (centres unmarked) [CBK305653] | 83.5 | 
COc1ccc(-c2nc3ccccc3s2)cc1O [CBK026156] | 91.6 | 
Cc1cc(C)nc(N2CCC(CC(=O)N3CCN(C4CCCC4)CC3)CC2)n1 [CBK285957] | 97.6 | 
Cc1cccc(C(=O)NCCCNC(=O)c2ccncc2)c1 [CBK269572] | 92.8 | 
CN1CCN(C(=O)c2cc(Br)cnc2NCc2cccnc2)CC1 [CBK076347] | 87.3 | 
CC1CCN(C(=O)c2cc(-c3ccco3)[nH]n2)CC1 [CBK296648] | 101 | 
O=[N+]([O-])c1ccccc1OCCCn1cnc2ccccc21 [CBK267820G] | 44.2 | 
CCN(CC)CCCNc1nccc(-c2cn(C)nc2C)n1 [CBK306654] | 97.4 | 
CC(OC(=O)Cc1ccccc1[N+](=O)[O-])c1nnnn1-c1ccccc1 (centres unmarked) [CBK297920] | 97.6 | 
C=C(C)Cn1c(SCC(C)C)nnc1-c1cccs1 [CBK200086] | 96.5 | 
O=C(CCS(=O)(=O)c1ccccc1)Nc1ccccc1N1CCNCC1 [CBK028285T] | 99.8 | 
Cc1cccc(NC2(C(F)(F)F)N=C(c3ccccc3)NC2=O)n1 (centres unmarked) [CBK267476] | 92.9 | 

SMILES | viability at 28.5 h, 10 µM [%] | viability at 28.5 h, 10 µM (bulk resorufin, single well) [%]
O=C(NC1CCCCC1)c1ccc(-c2ccccc2)nc1NCCc1ccccn1 [CBK076553] | 101 | 
CC(C)(C)NS(=O)(=O)c1ccc(CCC(=O)Nc2ccc(F)c(Cl)c2)cc1 [CBK266974] | 89.9 | 
CC(=O)NC(c1nccs1)C1CCN(C(=O)C2CC2C)CC1 (centres unmarked) [CBK282232] | 101 | 
Cn1c(=O)c2c(nc(Oc3ccccc3Cl)n2Cc2cccc(C(F)(F)F)c2)n(C)c1=O [CBK265940] | 89.7 | 
Cc1c(Cl)cccc1S(=O)(=O)NC1=NC(=O)C(CC(=O)Nc2ccccc2Cl)S1 (centres unmarked) [CBK200043] | 107 | 
CSCCC(NC(=O)c1ccc(S(=O)(=O)N2CC(C)OC(C)C2)cc1)C(=O)O (centres unmarked) [CBK297101] | 104 | 
O=C(O)CCCCN1C(=O)c2ccccc2S1(=O)=O [CBK287189] | 84.8 | 
CCCCc1ccc(S(=O)(=O)Nc2nccnc2-c2cccs2)cc1 [CBK050770] | 90.4 | 
COc1ccc(OCCNC(=O)c2cc(Br)cnc2N2CCOCC2)cc1 [CBK076214] | 88 | 
COc1ccc([C@@]23CC[C@@H](NS(=O)(=O)Cc4ccccc4)C[C@@H]2N(C)CC3)cc1OC [CBK056665T] | 91.4 | 
O=C(N/N=C/c1cc(Br)cc(Br)c1O)C(Oc1ccccc1)Oc1ccccc1 [CBK262164] | 95.6 | 
N#Cc1ccc(S(=O)(=O)NC2CCCCNC2=O)cc1 (centres unmarked) [CBK009293] | 102 | 
O=c1cc(-c2ccccc2)nc(SCc2nc(-c3cccs3)no2)[nH]1 [CBK268416] | 107 | 
CN1CCC(N2CCN(C(=O)NCc3ccc4c(c3)OCO4)CC2)CC1 [CBK155885] | 88.3 | 
CN1C[C@]2(CC[C@@H](C(=O)NC3CC3)CC2)Oc2ccccc2C1=O [CBK282610] | 102 | 
COc1ccc([N+](=O)[O-])cc1NC(=O)c1cc(-c2cccnc2)nc2ccc(C)cc12 [CBK267757] | 86.8 | 
Cc1ccc(CC(=O)N2CCCCC2c2ncc(-c3cccc(F)c3)[nH]2)cn1 (centres unmarked) [CBK291152] | 98 | 
CC(C)(C)OC(=O)N1CCN(c2cc(Cl)nc(N)n2)CC1 [CBK003505] | 91.8 | 
Cc1cc(C(F)(F)F)nn1CCC(=O)Nc1cnn(C)c1C(=O)O [CBK286817] | 98.4 | 
COc1cccc(C(NC(=O)C2CCN(C(=O)c3ccccc3)CC2)c2ccccn2)c1 (centres unmarked) [CBK060036] | 103 | 
COc1ccc(CN2CCCN(c3nccc(OCc4cc(C)on4)n3)CC2)cc1 [CBK083911] | 100 | 
Cn1cccc1CN1C[C@H]2CC[C@]3(NC(=O)c4ccccc4N3)[C@H]2C1 [CBK284443] | 97.7 | 
Cc1ccc(C)c(C2CCCN2C(=O)c2cccn(CC(=O)NC3CCCCC3)c2=O)c1 (centres unmarked) [CBK286010] | 93 | 

SMILES | viability at 28.5 h, 10 µM [%] | viability at 28.5 h, 10 µM (bulk resorufin, single well) [%]
Cc1ccc(OC(C)C(=O)Nc2cc(C(C)(C)C)on2)cc1C (centres unmarked) [CBK288251] | 107 | 
CN(C)CCN(C)C(=O)c1ccc(-c2cccc(C(=O)NCCO)c2)nc1NCC1CC1 [CBK076603] | 94 | 
COc1ccc(-c2cnc(N)c(-c3ccc(F)c(Cl)c3)n2)cn1 [CBK063966] | 111 | 
CC(=O)Nc1ccc2c(CSc3nnc(-c4ccco4)n3C)cc(=O)oc2c1 [CBK297534] | 91.7 | 
Cc1cc(C(=O)CSc2ccc(Cl)nn2)c(C)n1C1CC1 [CBK305512] | 99.2 | 
C1=C(CNC(Cc2cccs2)c2nccs2)COCC1 (centres unmarked) [CBK284682] | 103 | 
CC(C)C(NS(=O)(=O)c1ccccc1)C(=O)Nc1ccccc1 (centres unmarked) [CBK270001] | 87.8 | 
COCC(=O)N1CCc2nc(-c3ccc(F)cc3)sc2C1 [CBK281673] | 107 | 
CCOC(=O)CN1C(=O)S/C(=C/c2ccc(OCc3ccc(Br)cc3)cc2)C1=O [CBK264686] | 99.1 | 
Fc1ccc(OCCNC2CCc3[nH]c4ccccc4c3C2)cc1 (centres unmarked) [CBK107791] | 83.7 | 
CCCc1[nH]nc(O)c1CCc1ccc(OC)cc1 [CBK081128] | 102 | 
CN1CCN(c2cc(-c3ccccc3N(C)C)nc3ccnn23)CC1 [CBK037158] | 108 | 
Cc1nn(C)c(Cl)c1S(=O)(=O)Nc1ccc2nsnc2c1 [CBK062222] | 69.6 | 
CN(Cc1ccccc1)C(=O)CNS(=O)(=O)c1ccc([N+](=O)[O-])cc1 [CBK268586] | 107 | 
O=C(NCc1ccncc1)c1ccc(-n2ccnc2)c(-n2cccc2)c1 [CBK285367] | 88.4 | 
O=C(Nc1cc([N+](=O)[O-])ccc1O)c1cccc(C(=O)Nc2cc([N+](=O)[O-])ccc2O)c1 [CBK261168] |  | 102
CCc1cc(=O)[nH]c(-c2ccc(N(C)CC(C)O)nc2)n1 (centres unmarked) [CBK306484] | 88.4 | 
COc1ccc(-c2ccc(=O)n(CC(=O)NC(C(=O)O)c3ccccc3)n2)c(F)c1 (centres unmarked) [CBK286769] | 97.3 | 
O=C(Nc1ccc(S(=O)(=O)Nc2ncccn2)cc1)c1cc([N+](=O)[O-])ccc1Cl [CBK263717] | 89.9 | 
Cc1cc(C)cc(NS(=O)(=O)c2ccc(NC(=O)C(C)Oc3ccc(Cl)cc3Cl)cc2)c1 (centres unmarked) [CBK264894] | 108 | 
O=C1NC2(CCC2)C(=O)N1Cc1nn(-c2ccccc2)c2c1CCC2 [CBK306383] | 95.6 | 
Clc1ccc(SCCN2CCOCC2)cc1 [CBK265055G] | 98.8 | 
CCCCc1ccc(-c2cnc3nc(O)ccc3c2)cc1 [CBK081296] | 69.9 | 

SMILES | viability at 28.5 h, 10 µM [%] | viability at 28.5 h, 10 µM (bulk resorufin, single well) [%]
CCNC(=O)c1c(O)nc2ccccc2c1O [CBK262450] | 103 | 
CC1CCc2c(C(=O)N3CC(C)OC(C)C3)csc2C1 (centres unmarked) [CBK304442] | 106 | 
CCCCCC1/C(=N\O)CCC1CC(=O)OC (centres unmarked) [CBK019978] | 93.9 | 
O=C(NC1CC1)[C@H]1O[C@H](CCN2CCN(c3ccccc3)CC2)CC[C@@H]1O [CBK288717] | 96.8 | 
Clc1ccc(COc2nccnc2N2CCN(CCOc3ccccc3)CC2)cc1Cl [CBK083091T] | 95.2 | 
CN(C)CCCN(Cc1cnn(C)c1)Cc1ccco1 [CBK283039] | 112 | 
O=C(O)CCN1C(=O)c2ccc(NC(=O)CCc3ccccc3)cc2C1=O [CBK266422] | 95.2 | 
Cc1cc(N2CCCC(N(C)S(=O)(=O)c3cccc(F)c3)CC2)nc(C)n1 (centres unmarked) [CBK285935] | 85.5 | 
N#Cc1c(NC(=O)CSc2nnc3c(n2)[nH]c2ccccc23)sc2c1CCCC2 [CBK262417] | 93 | 
Cc1nc(C2CCCCN2C(=O)CCc2ccccc2)ncc1C(=O)Nc1ccc(F)cc1 (centres unmarked) [CBK285870] | 95.3 | 
CN(Cc1nc2ccccc2c(=O)[nH]1)Cc1cc2c(cc1Br)OCCO2 [CBK296715] | 108 | 
O=C(O)CCc1ccc(-c2cccs2)n1-c1ccc(Cl)c(Cl)c1 [CBK264797] | 88.7 | 
COc1ccc(-n2ncc(-c3ccc(Br)cc3F)n2)cc1OC [CBK112915] | 96.9 | 
Cc1nn(C)cc1C(=O)N1CCC2(C/C=C/CCOc3ccccc3C(=O)NCCCNC2=O)CC1 [CBK292154] | 110 | 
NCCCNC(=O)c1cc2ccccc2[nH]1 [CBK267639] | 88.4 | 
CCOC(=O)Cc1csc(NC(=O)CSc2nc3cc4c(cc3cc2C)OCO4)n1 [CBK109112] | 105 | 
COC(=O)C1(Cc2ccccc2)CN(C(=O)OC(C)(C)C)CCC1=O (centres unmarked) [CBK003486] | 93.2 | 
Cc1cc(C)nc(NC(=O)C(C)Oc2ccc(Cl)cc2Cl)n1 (centres unmarked) [CBK265600] | 90.4 | 
COc1ccc(-c2cc(Nc3ccccc3)ncn2)cc1 [CBK090911] | 93.9 | 
C[C@@H](Cn1nc2c(cc1=O)CCCC2)NC(=O)c1ccc(F)cc1 [CBK284562] | 91.3 | 
